System: GBA mutant human fibroblasts GM008760
Assay: Glucosylceramide lowering assay
Assay type: cell-based
Settings: 10 μM test compound, 4 days culture, GlcCer (C16:0)/Cer (C16:0) molar ratio of test compound group relative to DMSO control group x100, smaller value = glucosylceramide lowering; for activity at 10 µM: Homo sapiens, Fibroblast, 96 h
Experimental: Glucosylceramide Lowering Assay
Using GBA mutant human fibroblasts containing mutated glucosylceramidase, the effect of test compounds on glucosylceramide reduction was evaluated.
GBA mutant human fibroblasts GM008760 (Coriel Institute) were seeded in a 96-well multiwell plate at a density of 5,000 cells/100 μL culture solution/well. GlutaMAX (Thermo Fishcer Scientific), penicillin-streptomycin, and Minimum Essential Media (Thermo Fishcer Scientific) supplemented with 15% fetal bovine serum were used as a culture solution. After culturing for 2 days, a 10 mM DMSO solution of the test compound diluted with the culture solution was added to a 96-well plate by 100 μL to adjust a final test compound concentration to 10 μM. After culturing the cells for 4 days in the presence of the test compound, the culture solution was removed, and the cells adhered to the 96-well plate were washed with a phosphate buffer (ThermoFisher Scientific, product number 14190-144). A solvent composed of 50% ethanol and 50% isopropanol was added to the 96-well plate by 100 μL, and the intracellular lipids were dissolved by pipetting. A solution prepared by dissolving N-Octadecanoyl-D35-psychosine (50 ng/mL, Matreya LLC Inc.) as an internal standard in 50% ethanol and 50% isopropanol was added to the sample in an equal volume, and 2.5 μL of the centrifuged supernatant was used as the test compound group.
In the same manner as above, a control group was prepared by using DMSO instead of the 10 mM DMSO solution of the test compound.
For the test compound group and the control group, molar concentrations of glucosylceramide [GlcCer (C16:0)] and ceramide [Cer (C16:0)] were quantified using Rapidfire-MS/MS (API-5000, Turbo-ESI, SRM), and the glucosylceramide lowering effect of the test compound group relative to the control group was evaluated by the following formula. (GlcCer/Cer of test compound group)/(GlcCer/Cer of control group)×100 wherein GlcCer/Cer is the ratio of the molar concentration of glucosylceramide to that of ceramide.
In this test, when the numerical value obtained by the above calculation formula is small, glucosylceramide is metabolized to ceramide by the test compound, or the synthesis of glucosylceramide from ceramide is inhibited by the test compound, that is, it can be said that the test compound has a glucosylceramide lowering effect.

Compound `Cc1cn(C)c(=O)c2c(C(=O)N3CC4CC4(c4ccc(OC(F)(F)F)c(F)c4)C3)cn(C)c12` (stereo not drawn) [Example 139, 3-((1-(3-fluoro-4-(trifluoromethoxy)phenyl)-3-azabicyclo[3.1.0]hex-3-yl)carbonyl)-1,5,7-trimethyl-1,5-dihydro-4H-pyrrolo[3,2-c]pyridin-4-one] has an activity at 10 µM of 37%.

Compound `Cc1cn(C)c(=O)c2c(C(=O)N3CC4CC4(c4cc(Cl)cc(C(F)(F)F)c4)C3)cn(C)c12` (stereo not drawn) [Example 140, 3-((1-(3-chloro-5-(trifluoromethyl)phenyl)-3-azabicyclo[3.1.0]hex-3-yl)carbonyl)-1,5,7-trimethyl-1,5-dihydro-4H-pyrrolo[3,2-c]pyridin-4-one] has an activity at 10 µM of 49%.

`Cc1cn(C)c(=O)c2c(C(=O)N3CC4CC4(c4ccc(Cl)c(C(F)(F)F)c4)C3)cn(C)c12` (stereo not drawn) [Example 141, 3-((1-(4-chloro-3-(trifluoromethyl)phenyl)-3-azabicyclo[3.1.0]hex-3-yl)carbonyl)-1,5,7-trimethyl-1,5-dihydro-4H-pyrrolo[3,2-c]pyridin-4-one] showed an activity at 10 µM of 47%.

`Cc1ccc(C23CN(C(=O)c4cn(C)c5c(C)cn(C)c(=O)c45)CC2C3(F)F)cc1` (stereo not drawn) [Example 146, 3-((6,6-difluoro-1-(4-methylphenyl)-3-azabicyclo[3.1.0]hex-3-yl)carbonyl)-1,5,7-trimethyl-1,5-dihydro-4H-pyrrolo[3,2-c]pyridin-4-one] gave an activity at 10 µM of 65%.

Work on `Cc1cn(C)c(=O)c2c(C(=O)N3CC4CC4(c4ccccc4OC(F)(F)F)C3)cn(C)c12` (stereo not drawn) [Example 151, 1,5,7-trimethyl-3-((1-(2-(trifluoromethoxy)phenyl)-3-azabicyclo[3.1.0]hex-3-yl)carbonyl)-1,5-dihydro-4H-pyrrolo[3,2-c]pyridin-4-one] yielded an activity at 10 µM of 46%.

With `Cc1cn(C)c(=O)c2c(C(=O)N3CCC4(c5ccc(Cl)cc5)C(C3)C4(F)F)cn(C)c12` (stereo not drawn) [Example 153, 3-((6-(4-chlorophenyl)-7,7-difluoro-3-azabicyclo[4.1.0]hept-3-yl)carbonyl)-1,5,7-trimethyl-1,5-dihydro-4H-pyrrolo[3,2-c]pyridin-4-one] the activity at 10 µM was 60%.

Work on `Cc1cn(C)c(=O)c2c(C(=O)N3CCC4(c5cccc(Cl)c5)C(C3)C4(F)F)cn(C)c12` (stereo not drawn) [Example 155, 3-((6-(3-chlorophenyl)-7,7-difluoro-3-azabicyclo[4.1.0]hept-3-yl)carbonyl)-1,5,7-trimethyl-1,5-dihydro-4H-pyrrolo[3,2-c]pyridin-4-one] yielded an activity at 10 µM of 53%.

Work on `Cc1cn(C)c(=O)c2c(C(=O)N3CCC(F)(c4ccc(Cl)cc4)C3)cn(C)c12` (stereo not drawn) [Example 168, 3-((3-(4-chlorophenyl)-3-fluoropyrrolidin-1-yl)carbonyl)-1,5,7-trimethyl-1,5-dihydro-4H-pyrrolo[3,2-c]pyridin-4-one] yielded an activity at 10 µM of 40%.

In the case of `Cc1cn(C)c(=O)c2c(C(=O)N3CCC(Oc4cccc(C(F)(F)F)c4)CC3)cn(C)c12` [Example 176, 1,5,7-trimethyl-3-((4-(3-(trifluoromethyl)phenoxy)piperidin-1-yl)carbonyl)-1,5-dihydro-4H-pyrrolo[3,2-c]pyridin-4-one], the activity at 10 µM is reported as 56%.

Compound `Cc1cn(C)c(=O)c2c(C(=O)N3CCC(Oc4ccc(Cl)c(Cl)c4)CC3)cn(C)c12` [Example 178, 3-((4-(3,4-dichlorophenoxy)piperidin-1-yl)carbonyl)-1,5,7-trimethyl-1,5-dihydro-4H-pyrrolo[3,2-c]pyridin-4-one] has an activity at 10 µM of 42%.

With `Cc1cn(C)c(=O)c2c(C(=O)N3CCC(Oc4cccc(Cl)c4)CC3)cn(C)c12` [Example 188, 3-((4-(3-chlorophenoxy)piperidin-1-yl)carbonyl)-1,5,7-trimethyl-1,5-dihydro-4H-pyrrolo[3,2-c]pyridin-4-one] the activity at 10 µM was 65%.

Work on `Cc1cn(C)c(=O)c2c(C(=O)N3CCC(Oc4ccc(Cl)cc4)CC3)cn(C)c12` [Example 189, 3-((4-(4-chlorophenoxy)piperidin-1-yl)carbonyl)-1,5,7-trimethyl-1,5-dihydro-4H-pyrrolo[3,2-c]pyridin-4-one] yielded an activity at 10 µM of 36%.

With `Cc1cn(C)c(=O)c2c(C(=O)N3CCC(Oc4ccc(C(F)(F)F)cc4)CC3)cn(C)c12` [Example 190, 1,5,7-trimethyl-3-((4-(4-(trifluoromethyl)phenoxy)piperidin-1-yl)carbonyl)-1,5-dihydro-4H-pyrrolo[3,2-c]pyridin-4-one] the activity at 10 µM was 29%.

Work on `Cc1cn(C)c(=O)c2c(C(=O)N3C[C@H]4C[C@@]4(c4ccc(Cl)c(Cl)c4)C3)cn(C)c12` [Example 205, 3-(((1R,5S)-1-(3,4-dichlorophenyl)-3-azabicyclo[3.1.0]hex-3-yl)carbonyl)-1,5,7-trimethyl-1,5-dihydro-4H-pyrrolo[3,2-c]pyridin-4-one] yielded an activity at 10 µM of 62%.

In the case of `Cc1cn(C)c(=O)c2c(C(=O)N3C[C@@H]4C[C@]4(c4ccc(Cl)c(Cl)c4)C3)cn(C)c12` [Example 206, 3-(((1S,5R)-1-(3,4-dichlorophenyl)-3-azabicyclo[3.1.0]hex-3-yl)carbonyl)-1,5,7-trimethyl-1,5-dihydro-4H-pyrrolo[3,2-c]pyridin-4-one], the activity at 10 µM is reported as 49%.

Work on `Cc1cn(C)c(=O)c2c(C(=O)NCc3ccc(-c4ccc(Cl)cc4)s3)cn(C)c12` [Example 217, N-((5-(4-chlorophenyl)-2-thienyl)methyl)-1,5,7-trimethyl-4-oxo-4,5-dihydro-1H-pyrrolo[3,2-c]pyridine-3-carboxamide] yielded an activity at 10 µM of 64%.

Compound `Cc1cn(C)c(=O)c2c(C(=O)NC(C)(C)c3ccccc3)cn(C)c12` [Example 219, 1,5,7-trimethyl-4-oxo-N-(2-phenylpropan-2-yl)-4,5-dihydro-1H-pyrrolo[3,2-c]pyridine-3-carboxamide] has an activity at 10 µM of 63%.

With `Cc1cn(C)c(=O)c2c(C(=O)NC(C)(C)c3ccc(Cl)cc3)cn(C)c12` [Example 221, N-(2-(4-chlorophenyl)propan-2-yl)-1,5,7-trimethyl-4-oxo-4,5-dihydro-1H-pyrrolo[3,2-c]pyridine-3-carboxamide] the activity at 10 µM was 44%.

For `Cc1cn(C)c(=O)c2c(C(=O)NC3(c4cccc(Cl)c4)CCC3)cn(C)c12` [Example 227, N-(1-(3-chlorophenyl)cyclobutyl)-1,5,7-trimethyl-4-oxo-4,5-dihydro-1H-pyrrolo[3,2-c]pyridine-3-carboxamide], the activity at 10 µM was 59%.

`Cc1cn(C)c(=O)c2c(C(=O)NC3(c4ccc(Cl)cc4)CCC3)cn(C)c12` [Example 228, N-(1-(4-chlorophenyl)cyclobutyl)-1,5,7-trimethyl-4-oxo-4,5-dihydro-1H-pyrrolo[3,2-c]pyridine-3-carboxamide] showed an activity at 10 µM of 43%.

Work on `Cc1cn(C)c(=O)c2c(C(=O)Nc3cccc(OCc4ccccc4)c3)cn(C)c12` [Example 231, N-(3-(benzyloxy)phenyl)-1,5,7-trimethyl-4-oxo-4,5-dihydro-1H-pyrrolo[3,2-c]pyridine-3-carboxamide] yielded an activity at 10 µM of 59%.

In the case of `Cc1cn(C)c(=O)c2c(C(=O)N3CCC(c4ccc(Cl)cc4)CC3)cn(C)c12` [Example 258, 3-((4-(4-chlorophenyl)piperidin-1-yl)carbonyl)-1,5,7-trimethyl-1,5-dihydro-4H-pyrrolo[3,2-c]pyridin-4-one], the activity at 10 µM is reported as 64%.

With `Cc1cn(C)c(=O)c2c(C(=O)N3CC4CC4(c4ccc5ccccc5c4)C3)cn(C)c12` (stereo not drawn) [Example 261, 1,5,7-trimethyl-3-((1-(2-naphthyl)-3-azabicyclo[3.1.0]hex-3-yl)carbonyl)-1,5-dihydro-4H-pyrrolo[3,2-c]pyridin-4-one] the activity at 10 µM was 65%.

Compound `Cc1cn(C)c(=O)c2c(C(=O)N3CC4CC4(c4cccc5ccccc45)C3)cn(C)c12` (stereo not drawn) [Example 262, 1,5,7-trimethyl-3-((1-(1-naphthyl)-3-azabicyclo[3.1.0]hex-3-yl)carbonyl)-1,5-dihydro-4H-pyrrolo[3,2-c]pyridin-4-one] has an activity at 10 µM of 51%.

In the case of `Cc1cn(C)c(=O)c2c(C(=O)N3CC4CC4(c4ccc(Cl)cc4)C3)cn(C)c12` (stereo not drawn) [Example 265, 3-((1-(4-chlorophenyl)-3-azabicyclo[3.1.0]hex-3-yl)carbonyl)-1,5,7-trimethyl-1,5-dihydro-4H-pyrrolo[3,2-c]pyridin-4-one], the “10 μM GlcCer/Cer (% of control)” value is reported as 34 % of control.

`CCCCO[C@H]1CC[C@H](NC(=O)c2nn(C)c3c(C)cn(C)c(=O)c23)CC1` [Example 277, N-(trans-4-butoxycyclohexyl)-1,5,7-trimethyl-4-oxo-4,5-dihydro-1H-pyrazolo[4,3-c]pyridine-3-carboxamide] showed an activity at 10 µM of 77%.

Compound `Cc1cn(C)c(=O)c2c(C(=O)Nc3ccccc3OCc3ccccc3)n(C)nc12` [Example 282, N-(2-(benzyloxy)phenyl)-2,5,7-trimethyl-4-oxo-4,5-dihydro-2H-pyrazolo[4,3-c]pyridine-3-carboxamide] has an activity at 10 µM of 66%.

Reference: patent publication US11459325B2, “Heterocyclic compound” (Takeda Pharmaceutical Company Limited, priority 2018, dated 2022)
